Measurements as given in ChEMBL document CHEMBL4507256 (2021).

What was measured:
[1] = target: AP2-associated protein kinase 1 (Homo sapiens) (UniProt Q2M2I8); details: Compound concentration 1000.0 nM
[2] = system: Tyrosine-protein kinase ABL1 (Homo sapiens), P00519 [H396P]; details: Compound concentration 1000.0 nM
[3] = target: RAC-alpha serine/threonine-protein kinase (Homo sapiens) (UniProt P31749); details: Compound concentration 1000.0 nM
[4] = target: RAC-beta serine/threonine-protein kinase (Homo sapiens) (UniProt P31751); details: Compound concentration 1000.0 nM
[5] = target: Tyrosine-protein kinase receptor UFO (Homo sapiens) (UniProt P30530); details: Compound concentration 1000.0 nM
[6] = target: Calcium/calmodulin-dependent protein kinase type II subunit alpha (Homo sapiens) (UniProt Q9UQM7); details: Compound concentration 1000.0 nM
[7] = target: Cyclin-dependent kinase 7 (Homo sapiens) (UniProt P50613); details: Compound concentration 1000.0 nM
[8] = target: Cyclin-dependent kinase-like 2 (Homo sapiens) (UniProt Q92772); details: Compound concentration 1000.0 nM
[9] = target: Dual specificity protein kinase CLK2 (Homo sapiens) (UniProt P49760); details: Compound concentration 1000.0 nM
[10] = target: Tyrosine-protein kinase CSK (Homo sapiens) (UniProt P41240); details: Compound concentration 1000.0 nM
[11] = target: Casein kinase II subunit alpha' (Homo sapiens) (UniProt P19784); details: Compound concentration 1000.0 nM
[12] = target: Serine/threonine-protein kinase DCLK3 (Homo sapiens) (UniProt Q9C098); details: Compound concentration 1000.0 nM
[13] = system: Epidermal growth factor receptor (Homo sapiens), P00533 [UNDEFINED MUTATION]; details: Compound concentration 1000.0 nM
[14] = system: Epidermal growth factor receptor (Homo sapiens), P00533 [T790M]; details: Compound concentration 1000.0 nM
[15] = target: Ephrin type-A receptor 6 (Homo sapiens) (UniProt Q9UF33); details: Compound concentration 1000.0 nM
[16] = target: Ephrin type-B receptor 3 (Homo sapiens) (UniProt P54753); details: Compound concentration 1000.0 nM
[17] = system: Receptor-type tyrosine-protein kinase FLT3 (Homo sapiens), P36888 [D835H]; details: Compound concentration 1000.0 nM
[18] = system: Receptor-type tyrosine-protein kinase FLT3 (Homo sapiens), P36888 [UNDEFINED MUTATION]; details: Compound concentration 1000.0 nM
[19] = target: Tyrosine-protein kinase HCK (Homo sapiens) (UniProt P08631); details: Compound concentration 1000.0 nM
[20] = system: Mast/stem cell growth factor receptor Kit (Homo sapiens), P10721 [A829P]; details: Compound concentration 1000.0 nM
[21] = target: Serine/threonine-protein kinase STK11 (Homo sapiens) (UniProt Q15831); details: Compound concentration 1000.0 nM
[22] = target: Mitogen-activated protein kinase kinase kinase 3 (Homo sapiens) (UniProt Q99759); details: Compound concentration 1000.0 nM
[23] = target: Mitogen-activated protein kinase kinase kinase kinase 3 (Homo sapiens) (UniProt Q8IVH8); details: Compound concentration 1000.0 nM
[24] = target: Mitogen-activated protein kinase kinase kinase kinase 4 (Homo sapiens) (UniProt O95819); details: Compound concentration 1000.0 nM
[25] = target: Dual specificity mitogen-activated protein kinase kinase 2 (Homo sapiens) (UniProt P36507); details: Compound concentration 1000.0 nM
[26] = target: Serine/threonine-protein kinase Nek1 (Homo sapiens) (UniProt Q96PY6); details: Compound concentration 1000.0 nM
[27] = target: Cyclin-dependent kinase 16 (Homo sapiens) (UniProt Q00536); details: Compound concentration 1000.0 nM
[28] = target: Phosphatidylinositol 3-kinase C2 domain-containing subunit gamma (Homo sapiens) (UniProt O75747); details: Compound concentration 1000.0 nM
[29] = target: Serine/threonine-protein kinase PLK2 (Homo sapiens) (UniProt Q9NYY3); details: Compound concentration 1000.0 nM
[30] = target: Serine/threonine-protein kinase PLK4 (Homo sapiens) (UniProt O00444); details: Compound concentration 1000.0 nM
[31] = target: Protein kinase C delta type (Homo sapiens) (UniProt Q05655); details: Compound concentration 1000.0 nM
[32] = target: Protein kinase C epsilon type (Homo sapiens) (UniProt Q02156); details: Compound concentration 1000.0 nM
[33] = target: Protein kinase C eta type (Homo sapiens) (UniProt P24723); details: Compound concentration 1000.0 nM
[34] = target: cGMP-dependent protein kinase 1 (Homo sapiens) (UniProt Q13976); details: Compound concentration 1000.0 nM
[35] = target: cGMP-dependent protein kinase 2 (Homo sapiens) (UniProt Q13237); details: Compound concentration 1000.0 nM
[36] = target: STE20-like serine/threonine-protein kinase (Homo sapiens) (UniProt Q9H2G2); details: Compound concentration 1000.0 nM
[37] = target: SNF-related serine/threonine-protein kinase (Homo sapiens) (UniProt Q9NRH2); details: Compound concentration 1000.0 nM
[38] = target: Tyrosine-protein kinase receptor Tie-1 (Homo sapiens) (UniProt P35590); details: Compound concentration 1000.0 nM
[39] = target: TRAF2 and NCK-interacting protein kinase (Homo sapiens) (UniProt Q9UKE5); details: Compound concentration 1000.0 nM
[40] = target: Dual specificity protein kinase TTK (Homo sapiens) (UniProt P33981); details: Compound concentration 1000.0 nM
[41] = target: Tyrosine-protein kinase TXK (Homo sapiens) (UniProt P42681); details: Compound concentration 1000.0 nM
[42] = target: 5-hydroxytryptamine receptor 5A (Homo sapiens) (UniProt P47898); details: Compound concentration 10.0 uM
[43] = target: D(2) dopamine receptor (Homo sapiens) (UniProt P14416); details: Compound concentration 10.0 uM
[44] = target: Kappa-type opioid receptor (Homo sapiens) (UniProt P41145); details: Compound concentration 10.0 uM
[45] = target: Sigma intracellular receptor 2 (Homo sapiens) (UniProt Q5BJF2); details: Compound concentration 10.0 uM

Sequence of Tyrosine-protein kinase HCK (Homo sapiens) (P08631 2-526 limits assumed): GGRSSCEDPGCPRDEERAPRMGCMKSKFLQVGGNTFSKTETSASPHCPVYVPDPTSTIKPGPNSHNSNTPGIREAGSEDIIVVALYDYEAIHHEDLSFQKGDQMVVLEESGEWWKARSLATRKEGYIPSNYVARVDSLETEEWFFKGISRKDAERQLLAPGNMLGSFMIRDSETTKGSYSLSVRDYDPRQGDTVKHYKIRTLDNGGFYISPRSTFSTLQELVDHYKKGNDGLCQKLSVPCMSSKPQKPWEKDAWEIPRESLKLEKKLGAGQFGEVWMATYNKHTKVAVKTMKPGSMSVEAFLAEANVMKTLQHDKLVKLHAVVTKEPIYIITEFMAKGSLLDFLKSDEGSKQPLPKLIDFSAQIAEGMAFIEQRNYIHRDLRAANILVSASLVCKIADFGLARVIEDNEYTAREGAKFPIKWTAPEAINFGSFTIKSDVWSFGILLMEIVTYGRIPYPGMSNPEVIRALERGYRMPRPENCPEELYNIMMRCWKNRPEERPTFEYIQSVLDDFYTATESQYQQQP
Sequence of Ephrin type-A receptor 6 (Homo sapiens) (Q9UF33 whole entry): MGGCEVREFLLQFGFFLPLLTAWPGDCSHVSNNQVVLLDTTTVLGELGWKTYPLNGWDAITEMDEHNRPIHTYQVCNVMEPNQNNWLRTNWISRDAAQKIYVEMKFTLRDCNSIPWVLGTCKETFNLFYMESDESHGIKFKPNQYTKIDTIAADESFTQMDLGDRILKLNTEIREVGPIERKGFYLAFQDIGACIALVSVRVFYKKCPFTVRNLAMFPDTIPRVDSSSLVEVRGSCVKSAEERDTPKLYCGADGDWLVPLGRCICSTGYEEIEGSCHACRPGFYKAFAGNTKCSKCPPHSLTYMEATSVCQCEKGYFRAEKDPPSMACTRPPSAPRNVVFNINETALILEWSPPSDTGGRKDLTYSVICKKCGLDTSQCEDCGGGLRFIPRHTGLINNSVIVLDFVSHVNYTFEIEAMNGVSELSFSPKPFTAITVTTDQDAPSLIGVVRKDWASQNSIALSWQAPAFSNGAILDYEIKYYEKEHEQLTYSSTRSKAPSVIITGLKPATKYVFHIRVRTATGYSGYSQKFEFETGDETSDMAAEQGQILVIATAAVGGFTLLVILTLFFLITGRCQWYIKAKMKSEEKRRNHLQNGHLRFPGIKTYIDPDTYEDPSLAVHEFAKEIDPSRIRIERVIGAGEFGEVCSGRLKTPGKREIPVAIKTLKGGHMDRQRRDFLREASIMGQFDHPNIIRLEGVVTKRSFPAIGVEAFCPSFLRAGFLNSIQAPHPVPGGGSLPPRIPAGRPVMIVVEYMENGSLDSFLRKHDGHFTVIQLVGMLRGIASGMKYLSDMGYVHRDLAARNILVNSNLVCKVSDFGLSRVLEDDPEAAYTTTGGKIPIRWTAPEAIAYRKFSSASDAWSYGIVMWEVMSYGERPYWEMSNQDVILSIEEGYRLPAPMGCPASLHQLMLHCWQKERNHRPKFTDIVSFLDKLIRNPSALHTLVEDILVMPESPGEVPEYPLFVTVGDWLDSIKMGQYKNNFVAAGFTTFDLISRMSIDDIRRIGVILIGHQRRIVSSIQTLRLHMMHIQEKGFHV
Sequence of Protein kinase C epsilon type (Homo sapiens) (Q02156 whole entry): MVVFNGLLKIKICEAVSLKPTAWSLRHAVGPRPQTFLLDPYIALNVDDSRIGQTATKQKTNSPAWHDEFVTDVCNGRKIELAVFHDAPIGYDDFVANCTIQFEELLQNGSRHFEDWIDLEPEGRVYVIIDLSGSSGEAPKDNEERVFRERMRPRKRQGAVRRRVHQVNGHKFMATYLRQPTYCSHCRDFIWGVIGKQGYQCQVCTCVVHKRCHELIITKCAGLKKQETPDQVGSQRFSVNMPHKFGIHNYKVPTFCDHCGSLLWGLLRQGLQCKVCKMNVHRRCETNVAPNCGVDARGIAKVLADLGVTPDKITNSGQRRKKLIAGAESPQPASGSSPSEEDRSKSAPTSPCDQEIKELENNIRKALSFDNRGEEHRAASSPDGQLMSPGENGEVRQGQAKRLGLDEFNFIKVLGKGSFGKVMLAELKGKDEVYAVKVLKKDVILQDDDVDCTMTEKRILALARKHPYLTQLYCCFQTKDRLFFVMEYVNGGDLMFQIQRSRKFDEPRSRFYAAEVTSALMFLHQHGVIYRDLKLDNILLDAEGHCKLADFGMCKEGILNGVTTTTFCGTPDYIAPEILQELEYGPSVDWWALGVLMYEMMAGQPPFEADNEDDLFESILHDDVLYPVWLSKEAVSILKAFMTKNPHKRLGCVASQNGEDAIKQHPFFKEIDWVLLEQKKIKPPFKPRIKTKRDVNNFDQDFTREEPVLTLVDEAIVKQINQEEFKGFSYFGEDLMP
Sequence of Ephrin type-B receptor 3 (Homo sapiens) (P54753 whole entry): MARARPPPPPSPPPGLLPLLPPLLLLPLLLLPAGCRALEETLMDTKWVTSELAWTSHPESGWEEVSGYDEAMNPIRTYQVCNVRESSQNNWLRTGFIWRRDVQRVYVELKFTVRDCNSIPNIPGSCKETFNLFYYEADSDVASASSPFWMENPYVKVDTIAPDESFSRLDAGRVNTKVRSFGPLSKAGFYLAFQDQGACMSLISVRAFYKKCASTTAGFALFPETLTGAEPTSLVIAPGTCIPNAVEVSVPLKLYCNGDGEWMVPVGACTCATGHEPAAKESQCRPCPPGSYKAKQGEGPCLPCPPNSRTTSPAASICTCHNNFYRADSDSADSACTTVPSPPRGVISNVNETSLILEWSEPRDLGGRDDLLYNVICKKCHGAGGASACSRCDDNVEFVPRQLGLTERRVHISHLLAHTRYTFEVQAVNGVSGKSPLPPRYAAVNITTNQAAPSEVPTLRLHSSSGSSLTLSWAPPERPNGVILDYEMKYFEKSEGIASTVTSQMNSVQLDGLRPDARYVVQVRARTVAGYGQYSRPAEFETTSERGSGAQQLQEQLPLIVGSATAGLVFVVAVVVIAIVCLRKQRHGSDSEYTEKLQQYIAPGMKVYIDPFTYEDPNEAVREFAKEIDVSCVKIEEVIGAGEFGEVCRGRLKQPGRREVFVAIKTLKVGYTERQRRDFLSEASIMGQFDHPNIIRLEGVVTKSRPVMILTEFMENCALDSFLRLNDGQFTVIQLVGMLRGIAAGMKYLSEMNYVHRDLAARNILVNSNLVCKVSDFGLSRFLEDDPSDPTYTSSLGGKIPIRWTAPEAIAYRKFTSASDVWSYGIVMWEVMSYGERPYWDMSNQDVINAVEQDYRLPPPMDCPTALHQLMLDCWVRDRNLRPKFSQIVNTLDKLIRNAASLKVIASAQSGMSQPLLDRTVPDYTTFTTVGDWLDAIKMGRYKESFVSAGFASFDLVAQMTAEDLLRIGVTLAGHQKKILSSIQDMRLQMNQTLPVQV
Sequence of STE20-like serine/threonine-protein kinase (Homo sapiens) (Q9H2G2 whole entry, looked up): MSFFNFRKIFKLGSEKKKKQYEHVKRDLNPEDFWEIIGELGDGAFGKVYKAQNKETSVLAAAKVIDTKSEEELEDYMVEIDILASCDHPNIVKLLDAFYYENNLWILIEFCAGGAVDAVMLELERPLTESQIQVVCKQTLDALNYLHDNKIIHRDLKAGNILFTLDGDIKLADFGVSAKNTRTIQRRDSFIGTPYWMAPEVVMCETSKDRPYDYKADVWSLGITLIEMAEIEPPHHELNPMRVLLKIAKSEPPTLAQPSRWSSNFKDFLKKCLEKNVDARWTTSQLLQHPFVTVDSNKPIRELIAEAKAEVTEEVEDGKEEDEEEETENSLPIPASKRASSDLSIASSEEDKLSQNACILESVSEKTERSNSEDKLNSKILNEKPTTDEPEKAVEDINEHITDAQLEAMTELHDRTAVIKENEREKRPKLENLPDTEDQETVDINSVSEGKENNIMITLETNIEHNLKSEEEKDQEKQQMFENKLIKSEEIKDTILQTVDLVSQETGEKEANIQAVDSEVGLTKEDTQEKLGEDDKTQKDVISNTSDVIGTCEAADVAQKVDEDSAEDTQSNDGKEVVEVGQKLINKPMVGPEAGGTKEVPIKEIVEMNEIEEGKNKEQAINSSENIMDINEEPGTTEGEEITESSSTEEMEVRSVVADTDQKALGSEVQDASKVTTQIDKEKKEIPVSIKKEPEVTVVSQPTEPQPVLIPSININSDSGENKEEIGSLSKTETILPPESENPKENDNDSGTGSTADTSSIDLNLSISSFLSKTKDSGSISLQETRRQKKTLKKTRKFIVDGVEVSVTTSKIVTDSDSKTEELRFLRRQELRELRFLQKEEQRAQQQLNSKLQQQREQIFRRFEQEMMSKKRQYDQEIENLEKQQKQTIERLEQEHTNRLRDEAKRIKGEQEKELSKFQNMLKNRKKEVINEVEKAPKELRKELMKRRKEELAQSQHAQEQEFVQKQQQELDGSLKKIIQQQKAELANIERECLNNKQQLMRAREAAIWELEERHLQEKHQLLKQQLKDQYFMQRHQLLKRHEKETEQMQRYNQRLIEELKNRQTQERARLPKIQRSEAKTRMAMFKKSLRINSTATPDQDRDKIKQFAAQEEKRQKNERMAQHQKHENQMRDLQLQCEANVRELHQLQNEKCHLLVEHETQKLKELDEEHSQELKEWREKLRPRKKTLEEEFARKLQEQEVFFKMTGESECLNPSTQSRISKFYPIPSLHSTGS
Sequence of Kappa-type opioid receptor (Homo sapiens) (P41145 whole entry): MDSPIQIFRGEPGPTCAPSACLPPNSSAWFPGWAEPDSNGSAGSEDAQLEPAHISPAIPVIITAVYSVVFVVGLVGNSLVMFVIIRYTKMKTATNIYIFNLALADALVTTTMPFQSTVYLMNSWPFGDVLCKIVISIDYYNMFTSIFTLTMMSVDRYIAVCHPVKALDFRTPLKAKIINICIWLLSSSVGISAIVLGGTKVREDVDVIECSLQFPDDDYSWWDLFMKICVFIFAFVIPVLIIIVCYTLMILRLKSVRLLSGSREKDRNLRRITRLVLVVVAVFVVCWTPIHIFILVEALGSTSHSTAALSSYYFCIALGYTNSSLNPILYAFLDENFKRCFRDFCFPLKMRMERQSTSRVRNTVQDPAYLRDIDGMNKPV

CCC(=N\O)/C(C)=C/c1ccc(F)cc1 [A-079]
inactive: residual activity [1] 89% | residual activity [2] 72% | residual activity [3] 82% | residual activity [4] 88% | residual activity [5] 100% | residual activity [6] 81% | residual activity [7] 60% | residual activity [8] 92% | residual activity [9] 78% | residual activity [10] 100% | residual activity [11] 100% | residual activity [12] 77% | residual activity [13] 69% | residual activity [14] 100% | residual activity [15] 67% | residual activity [16] 75% | residual activity [17] 100% | residual activity [18] 67% | residual activity [19] 100% | residual activity [20] 64% | residual activity [21] 100% | residual activity [22] 86% | residual activity [23] 100% | residual activity [24] 97% | residual activity [25] 100% | residual activity [26] 94% | residual activity [27] 86% | residual activity [28] 75% | residual activity [29] 78% | residual activity [30] 75% | residual activity [31] 100% | residual activity [32] 76% | residual activity [33] 100% | residual activity [34] 100% | residual activity [35] 79% | residual activity [36] 91% | residual activity [37] 100% | residual activity [38] 63% | residual activity [39] 93% | residual activity [40] 96% | residual activity [41] 81% | inhibition [42] 3.01% | inhibition [43] -8.66% | inhibition [44] 15.7% | inhibition [45] 22.6%

CCC(=N\O)/C(C)=C/c1ccc(F)c(C)c1 [A-226]
inactive: residual activity [1] 98% | residual activity [2] 100% | residual activity [3] 98% | residual activity [4] 84% | residual activity [5] 100% | residual activity [6] 100% | residual activity [7] 93% | residual activity [8] 81% | residual activity [9] 88% | residual activity [10] 96% | residual activity [11] 73% | residual activity [12] 100% | residual activity [13] 100% | residual activity [14] 100% | residual activity [15] 100% | residual activity [16] 96% | residual activity [17] 89% | residual activity [18] 100% | residual activity [19] 80% | residual activity [20] 100% | residual activity [21] 100% | residual activity [22] 100% | residual activity [23] 98% | residual activity [24] 100% | residual activity [25] 92% | residual activity [26] 100% | residual activity [27] 100% | residual activity [28] 98% | residual activity [29] 100% | residual activity [30] 100% | residual activity [31] 98% | residual activity [32] 62% | residual activity [33] 68% | residual activity [34] 100% | residual activity [35] 97% | residual activity [36] 93% | residual activity [37] 100% | residual activity [38] 100% | residual activity [39] 96% | residual activity [40] 93% | residual activity [41] 73% | inhibition [42] -3.24% | inhibition [43] -6.57% | inhibition [44] 8.6% | inhibition [45] 33.4%
